{"source": "patent US6573296B2", "about": "“Therapeutic quassinoid preparations with antineoplastic, antiviral, and herbistatic activity” (priority 1997, dated 2003)", "key": {"Sorghum (DeKalb 18)": {"tested_on": "Sorghum (DeKalb 18)", "assay": "growth of plants in soil after foliar application", "assay_type": "in vivo", "details": "twenty days after treatment, 10 μl of 1:1000/half pot; control plants 16 cm", "description": "(§1) To evaluate the growth phenotype of a set of plants, a 1 mg concentration of 100 Mm (solution QD-2). This solution was diluted serially with water with or without Triton X-100, ethanol or DMSO and used directly for measurement of effects on seed germination or applied using a microliter syringe to foliage to evaluate growth effects on plants.\nSorghum (DeKalb 18) plants growing in soil were treated as for Arabadopsis thaliani above after 6 days of germination when the plants were about 5 cm high (as the leaf emerged from the coleoptile sheath). Growth was retarded. Twenty days after treatment, control plants were 16 cm high and treated plants were 12 cm high. The application rate was 10 µl of 1:1000/half pot=2.5×10^−3 oz/A."}, "[1]": {"tested_on": "Arabadopsis (var. Columbia)", "assay": "growth of plants in soil after foliar application", "assay_type": "in vivo", "description": "as §1\nWhen applied to Arabadopsis (var. Columbia) growing in soil in 4 inch plastic pots, the glaucarubolone preparation was herbicidal at dilutions of 1:100 and 1:1000 (10 μ1/half pot). Plants were treated after 10 days of germination. At a dilution of 1:10,000, the plants were not killed but growth was completely stopped for about 3 weeks. Growth resumed about 30 days after treatment. […] The calculated application rate was 2.5×10^−3 oz/A.\nIn an experiment with Arabadopsis where the quassinoid preparation was administered in ethanol, herbicidal activity was observed down to a dilution of 1:10^4 (2.5×10^−5 oz/A) and a dilution of 1:10^5 (2.5×10^−6 oz/A) appeared to stop growth for at least 30 days. All plants were watered from the bottom to reduce surface spreading of the material. The inhibited phenotype includes an impaired ability of the plants to grow, i.e., cell elongation/cell expansion is prevented or reduced by at least 50% over several weeks."}, "NADH oxidase [2]": {"tested_on": "NADH oxidase", "assay": "NADH oxidase activity of soybean hypocotyl plasma membrane vesicles", "assay_type": "biochemical", "details": "plant soybean hypocotyl tissue, FIG. 11"}, "[3]": {"tested_on": "cabbage, radish, carrot, tomato and sorghum seeds", "assay": "seed germination", "assay_type": "in vivo", "description": "as §1\nWith seed germination, the compound was evaluated against five species: cabbage (Early Jersey Wakefield), radish (Scarlet Turnip White Tipped), carrot (Danvers Half Long), tomato (Rutgers) and sorghum (DeKalb 18). With water dilutions, seed germination of all species was inhibited at 10 μM (an aqueous dilution of 10 μl of 100 Mm 1:1000 in 100 μl of water) (Final DMSO concentration of 1:10,000=0.01%). Germination of tomato was inhibited at 10μ1/100 µl of an aqueous dilution of 1:10,000=1 μM final concentration."}, "NADH oxidase [4]": {"tested_on": "NADH oxidase", "assay": "NADH oxidase activity of rat liver cell fractions", "details": "for EC50: read-out: ED50, inhibition of NADH oxidase activity"}, "NADH oxidase [5]": {"tested_on": "NADH oxidase", "assay": "NADH oxidase activity of CFK microsomes from infected cells", "details": "Plasma membrane-free CFK microsomes (Golgi-enriched) from infected cells"}, "[6]": {"tested_on": "plasma membrane NADH oxidase (tNOX)"}, "[7]": {"tested_on": "porcine pseudorabies virus", "details": "rabbit kidney cells"}, "human rhinovirus-14": {"tested_on": "human rhinovirus-14", "assay": "cytopathic effect of rhinovirus in HeLa cells", "assay_type": "cell-based", "details": "HeLa cells (Wisconsin strain), visually observed", "description": "C. HeLa cells (Wisconsin strain, Berlin, Germany) were contacted with human rhinovirus-14. Infected cells (Wisconsin strain) were visually observed. […] HeLa cells were not killed by any compounds used. Cells of other HeLa lines (eg. ATCC CCL2) were killed. Glaucarubolone, simalikalactone D and chaparrinone were tested on cell killing and virus production by primary blood monocytes. All three drugs were tested at five concentrations (0, 10^−9, 10^−8, 10^−7, and 10^−6 M). Drugs were given at different times pre-infection, given at the time of infection, or were administered at different times post-infection."}}, "note": "Like-named read-outs stand apart in the source and are kept apart here."}
{"compound": "CC1=CC(=O)C(O)C2(C)C1CC1OC(=O)C(O)C3C(C)C(O)C4(O)OCC13C42", "note": "(stereo not shown) [Glaucarubolone, glaucarubolone]", "values": [{"measurement": "height of treated plants", "setting": "Sorghum (DeKalb 18)", "result": 12, "unit": "cm"}, {"measurement": "plants which survived and did not grow for >50 days", "setting": "[1]; dilution of 1:1000 (2.5×10^−3 oz/A)", "result": "Approximately 10%"}, {"measurement": "time after treatment at which growth resumed", "setting": "[1]; dilution of 1:10,000", "result": "about 30 days"}, {"measurement": "time for which growth was completely stopped", "setting": "[1]; dilution of 1:10,000 (2.5×10^−4 oz/A), plants not killed", "result": "about 3 weeks"}, {"measurement": "effect on plants, in words", "setting": "[1]; dilutions of 1:100 and 1:1000 (10 μl/half pot), treated after 10 days of germination", "result": "herbicidal"}, {"measurement": "inhibition of NADH oxidation, in words", "setting": "NADH oxidase [2]", "result": "similarly inhibited"}, {"measurement": "lowest concentrations at which inhibitions of germination were observed", "setting": "[3]; DMSO and ethanol dilutions 1:10^6 or 1:10^7, solvents themselves retarded germination", "result": "10-100 Nm"}, {"measurement": "concentration at which seed germination was inhibited", "setting": "[3]; all five species, water dilutions", "result": 10, "unit": "µM"}, {"measurement": "concentration at which seed germination was inhibited", "setting": "[3]; tomato, aqueous dilution 1:10,000", "result": 1, "unit": "µM"}, {"measurement": "inhibition of NADH oxidation, in words", "setting": "NADH oxidase [4]; isolated plasma membranes of liver cells, FIG. 10", "result": "inhibits NADH oxidation"}, {"measurement": "EC50", "setting": "NADH oxidase [4]; Rat liver golgi apparatus", "result": "> 10", "unit": "µM"}, {"measurement": "EC50", "setting": "NADH oxidase [4]; Rat liver microsomes", "result": "> 10", "unit": "µM"}, {"measurement": "EC50", "setting": "NADH oxidase [4]; Rat liver plasma membrane", "result": "> 10", "unit": "µM"}, {"measurement": "ED50, inhibition of NADH oxidase activity", "setting": "NADH oxidase [5]", "result": ">10^−8 M"}, {"measurement": "inhibition of NADH oxidation, in words", "setting": "[6]; HeLA (ATCC CCL2 strain), FIG. 10", "result": "inhibits NADH oxidation"}, {"measurement": "effect of redox poise on inhibition of NADH oxidase activity", "setting": "[6]; HeLa cell plasma membranes, FIG. 12", "result": "affected little by redox poise"}, {"measurement": "cytopathic effect on non-infected treated control cells", "setting": "[7]; non-infected", "result": "no cytopathic affect"}, {"measurement": "cytopathic effect of porcine pseudorabies virus", "setting": "[7]; visually monitored", "result": "inhibited cytopathic effect"}, {"measurement": "cytopathic effect of human rhinovirus-14", "setting": "human rhinovirus-14", "result": "Cytopathic effect was delayed"}]}
